Reference: patent publication US20050215614A1, “Substituted indoles and their use as hcv inhibitors” (Rigel Pharmaceuticals, Inc., priority 2003, published 2005)

system: HCV replicon; test: HCV Replicon Assay (luciferase, 5-2 Luc replicon cells); format: cell-based; details: 5-2 Luc replicon cells (Huh7), 24-48 hours with compound, luciferase counts
Outline: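 Huh7-derived 5-2 Luc replicon cells were seeded at 5000-7500 cells/well, grown 24 h at 37° C. and 5% CO2, then exposed to serial compound concentrations for 24-48 hours.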

Row | Compound | Activity (concentration of inhibitory activity)
1 | O=C(Nc1ccc2c(ccn2C(=O)c2c(Cl)cccc2Cl)c1)c1cccc(C(F)(F)F)c1 [Compound 250] | b (“b” indicates activity is at a concentration greater than 10 micromolar)
2 | O=C(Nc1ccc2c(ccn2C(=O)c2c(Cl)cccc2Cl)c1)c1cccs1 [Compound 251] | b (“b” indicates activity is at a concentration greater than 10 micromolar)
3 | O=C(Nc1ccc2c(ccn2C(=O)c2c(Cl)cccc2Cl)c1)C1CCCCC1 [Compound 252] | b (“b” indicates activity is at a concentration greater than 10 micromolar)
4 | O=C(Nc1ccc2c(ccn2C(=O)c2c(Cl)cccc2Cl)c1)C1CC1 [Compound 254] | b (“b” indicates activity is at a concentration greater than 10 micromolar)
5 | O=C(Cc1cccnc1)Nc1ccc2c(ccn2C(=O)c2c(Cl)cccc2Cl)c1 [Compound 255] | b (“b” indicates activity is at a concentration greater than 10 micromolar)
6 | Cc1cc2cc(NC(=O)c3sccc3Cl)ccc2n1C(=O)c1c(Cl)cccc1Cl [Compound 256] | b (“b” indicates activity is at a concentration greater than 10 micromolar)
7 | Cc1cc2cc(NC(=O)c3cccnc3)ccc2n1C(=O)c1c(F)cccc1C(F)(F)F [Compound 257] | b (“b” indicates activity is at a concentration greater than 10 micromolar)
8 | O=C(Nc1ccc2c(ccn2C(=O)c2c(Cl)cccc2Cl)c1)C1CCC1 [Compound 258] | b (“b” indicates activity is at a concentration greater than 10 micromolar)
9 | Cc1cc2cc(NC(=O)C3CC3)ccc2n1C(=O)c1ccccc1 [Compound 259] | b (“b” indicates activity is at a concentration greater than 10 micromolar)
10 | Cc1cc2cc(NC(=O)C3CCCCC3)ccc2n1C(=O)c1ccccc1 [Compound 260] | b (“b” indicates activity is at a concentration greater than 10 micromolar)
11 | Cc1cccc(F)c1C(=O)n1c(C)cc2cc(NC(=O)C3CCCCC3)ccc21 [Compound 262] | b (“b” indicates activity is at a concentration greater than 10 micromolar)
12 | Cc1cc2cc(NC(=O)CBr)ccc2n1C(=O)c1c(Cl)cccc1Cl [Compound 263] | b (“b” indicates activity is at a concentration greater than 10 micromolar)
13 | Cc1cc2cc(NC(=O)C3CCCCC3)ccc2n1C(=O)c1c(Cl)cncc1Cl [Compound 265] | b (“b” indicates activity is at a concentration greater than 10 micromolar)
14 | Cc1cc2cc(NC(=O)C3CCNCC3)ccc2n1C(=O)c1c(Cl)cccc1Cl [Compound 266] | a (“a” indicates inhibitory activity at a concentration of less than 10 micromolar)
15 | Cc1cc2cc(NC(=O)C3CCCCC3)ccc2n1C(=O)c1c(Cl)cccc1Cl [Compound 267] | b (“b” indicates activity is at a concentration greater than 10 micromolar)
16 | Cc1cc2cc(NC(=O)[C@H]3CCCN3)ccc2n1C(=O)c1c(Cl)cccc1Cl [Compound 268] | b (“b” indicates activity is at a concentration greater than 10 micromolar)
17 | Cc1cc2cc(NC(=O)C3CCN(C(=O)OC(C)(C)C)CC3)ccc2n1C(=O)c1c(F)cccc1Cl [Compound 269] | b (“b” indicates activity is at a concentration greater than 10 micromolar)
18 | Cc1cccc(C)c1C(=O)n1c(C)cc2cc(NC(=O)[C@H]3CCCN3)ccc21 [Compound 270] | b (“b” indicates activity is at a concentration greater than 10 micromolar)

Row | Compound | Activity (concentration of inhibitory activity)
19 | Cc1cc2cc(NC(=O)[C@H]3CCCN3)ccc2n1C(=O)c1c(F)cccc1Cl [Compound 271] | b (“b” indicates activity is at a concentration greater than 10 micromolar)
20 | Cc1cc2cc(NC(=O)C3CCCNC3)ccc2n1C(=O)c1c(F)cccc1Cl (stereo not drawn) [Compound 272] | b (“b” indicates activity is at a concentration greater than 10 micromolar)
21 | Cc1cc2cc(NC(=O)C3CCNCC3)ccc2n1C(=O)c1c(F)cccc1Cl [Compound 273] | b (“b” indicates activity is at a concentration greater than 10 micromolar)
22 | CCc1ccc(C(=O)n2c(C)cc3cc(NC(=O)C4CCCC4)ccc32)cc1 [Compound 274] | b (“b” indicates activity is at a concentration greater than 10 micromolar)
23 | Cc1cc2cc(NC(=O)C3CCCC3)ccc2n1C(=O)c1cc(Cl)cc(Cl)c1 [Compound 275] | b (“b” indicates activity is at a concentration greater than 10 micromolar)
24 | Cc1cc2cc(NC(=O)C3CCCC3)ccc2n1C(=O)c1ccc(Cl)cc1 [Compound 276] | b (“b” indicates activity is at a concentration greater than 10 micromolar)
25 | Cc1ccccc1C(=O)n1c(C)cc2cc(NC(=O)C3CCCC3)ccc21 [Compound 277] | b (“b” indicates activity is at a concentration greater than 10 micromolar)
26 | CC(C)(C)c1cc2cc(NC(=O)c3ccc(C(F)(F)F)cc3)ccc2[nH]1 [Compound 278] | a (“a” indicates inhibitory activity at a concentration of less than 10 micromolar)
27 | CC(C)(C)c1cc2cc(NC(=O)c3cc(Cl)nc(Cl)c3)ccc2[nH]1 [Compound 279] | a (“a” indicates inhibitory activity at a concentration of less than 10 micromolar)
28 | COc1cc(C(=O)Nc2ccc3[nH]c(C(C)(C)C)cc3c2)cc(OC)c1OC [Compound 280] | b (“b” indicates activity is at a concentration greater than 10 micromolar)
29 | CCC(C)(C)c1cc2cc(NC(=O)C(C)(C)C)ccc2[nH]1 [Compound 282] | b (“b” indicates activity is at a concentration greater than 10 micromolar)
30 | CCC(C)(C)c1cc2cc(NC(=O)/C=C/c3ccccc3)ccc2[nH]1 [Compound 283] | b (“b” indicates activity is at a concentration greater than 10 micromolar)
31 | CCC(C)(C)c1cc2cc(NC(=O)c3ccc(C(C)(C)C)cc3)ccc2[nH]1 [Compound 284] | b (“b” indicates activity is at a concentration greater than 10 micromolar)
32 | CCC(C)(C)c1cc2cc(NC(=O)c3c(F)cccc3F)ccc2[nH]1 [Compound 285] | a (“a” indicates inhibitory activity at a concentration of less than 10 micromolar)
33 | CCC(C)(C)c1cc2cc(NC(=O)c3cccc(C(F)(F)F)c3)ccc2[nH]1 [Compound 286] | a (“a” indicates inhibitory activity at a concentration of less than 10 micromolar)
34 | CCC(C)(C)c1cc2cc(NC(=O)C(c3ccccc3)c3ccccc3)ccc2[nH]1 [Compound 287] | b (“b” indicates activity is at a concentration greater than 10 micromolar)
35 | CCC(C)(C)c1cc2cc(NC(=O)c3cccs3)ccc2[nH]1 [Compound 288] | b (“b” indicates activity is at a concentration greater than 10 micromolar)
36 | CCC(C)(C)c1cc2cc(NC(=O)c3cc(Cl)nc(Cl)c3)ccc2[nH]1 [Compound 289] | a (“a” indicates inhibitory activity at a concentration of less than 10 micromolar)
